In the NIST ThermoML archive (doi:10.1021/je060148j):
Numbers after ± are expanded uncertainties.

Details: Liquid, Closed cell (Static) method

COC [dimethyl ether]
Details	vapor or sublimation pressure [kPa]
219.15 K	22.3 ± 2
221.13 K	25.2 ± 2
223.11 K	28.3 ± 2
224.88 K	31.5 ± 2
226.88 K	35.4 ± 2
228.85 K	39.5 ± 2
230.86 K	43.9 ± 2
232.86 K	48.7 ± 2
234.85 K	54.1 ± 2
236.85 K	59.8 ± 2
239.14 K	66.3 ± 2
241.14 K	73.2 ± 2
244.14 K	84 ± 2
247.13 K	96.1 ± 2
249.13 K	104.9 ± 2
251.14 K	114.3 ± 2
255.13 K	135.1 ± 2
257.12 K	146.6 ± 2
259.14 K	159 ± 2
261.13 K	171.8 ± 2
263.13 K	185.6 ± 2
265.13 K	199.8 ± 2
267.13 K	215.5 ± 2.1
269.13 K	231.8 ± 2.1
271.13 K	248.9 ± 2.1
273.13 K	266.8 ± 2.1
275.04 K	285.1 ± 2.1
277.02 K	305 ± 2.1
279.02 K	326.4 ± 2.1
281.02 K	348.8 ± 2.1
283.02 K	372.3 ± 2.1
285.01 K	397 ± 2.1
287 K	422.8 ± 2.2
288.99 K	449.8 ± 2.2
290.99 K	478.4 ± 2.2
293.08 K	508.9 ± 2.2
295.07 K	540 ± 2.2
297.07 K	573 ± 2.3
299.08 K	606.9 ± 2.3
301.11 K	643.1 ± 2.3
303.08 K	680.2 ± 2.4
305.07 K	718.4 ± 2.4
307.07 K	758.8 ± 2.4
309.06 K	800.7 ± 2.5
311.07 K	844.2 ± 2.5
313.06 K	889.5 ± 2.5
315.06 K	936.6 ± 2.6
317.04 K	985.3 ± 2.6
319.03 K	1036 ± 2.7
321.03 K	1088.7 ± 2.8
323.02 K	1143.3 ± 2.8
325.02 K	1200.6 ± 2.9
327.13 K	1262.3 ± 2.9
329.02 K	1319.9 ± 3
331.11 K	1385.3 ± 3.1
333.11 K	1450.6 ± 3.2
335.11 K	1518.8 ± 3.3
337.1 K	1588.4 ± 3.3
339.1 K	1660.3 ± 3.4
341.08 K	1733.3 ± 3.5
343.09 K	1811.3 ± 3.6
345.09 K	1891.2 ± 3.7
347.08 K	1972.8 ± 3.8
349.08 K	2057.4 ± 4
351.07 K	2144.3 ± 4.1
353.05 K	2232.7 ± 4.2
355.05 K	2326 ± 4.3
357.05 K	2421.9 ± 4.4
359.05 K	2520.3 ± 4.6
361.04 K	2621.5 ± 4.7
